Data reported in patent US20240239861A1, “GLUCAGON-RECEPTOR SELECTIVE POLYPEPTIDES AND METHODS OF USE THEREOF” (i2O Therapeutics, Inc., priority 2016, published 2024).
Like-named read-outs stand apart in the source and are kept apart here. *1 amine or outer side, *2 acyl side, *3 side chain or, on linkers, in order; H or OH if unused. Where a SMILES comes first, the peptide text is derived from it. Side-chain parts run from the residue outwards. [ ]: non-standard residue; d: D form. The star is where a group is joined. γGlu = O=C(O)[C@H](CCC(=O)[*:2])N[*:1]; Palmitoyl = CCCCCCCCCCCCCCCC(=O)*; Aib = CC(C)(N)C(=O)O

Columns and labels:
human GLP-1R = human GLP-1R (Homo sapiens, UniProt P43220); assay: Peptide-receptor mediated cAMP accumulation (LANCE Ultra cAMP) in CHO-K1 cells transfected with human GLP-1R; format: cell-based
Chain of human GLP-1R (P43220 24-463): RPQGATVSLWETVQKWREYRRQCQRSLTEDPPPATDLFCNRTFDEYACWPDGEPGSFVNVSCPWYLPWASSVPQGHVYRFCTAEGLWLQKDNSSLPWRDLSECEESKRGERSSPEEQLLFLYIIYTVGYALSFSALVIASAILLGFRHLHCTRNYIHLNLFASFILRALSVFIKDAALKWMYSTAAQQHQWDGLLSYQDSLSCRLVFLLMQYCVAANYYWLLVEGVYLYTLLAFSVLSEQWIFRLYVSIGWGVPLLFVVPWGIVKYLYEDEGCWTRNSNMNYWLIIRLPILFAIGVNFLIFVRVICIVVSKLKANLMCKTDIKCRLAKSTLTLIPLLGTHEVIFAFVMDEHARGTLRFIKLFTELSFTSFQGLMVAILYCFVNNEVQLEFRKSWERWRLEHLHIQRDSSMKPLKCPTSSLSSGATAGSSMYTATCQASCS

human GCGR = human GCGR (Homo sapiens, UniProt P47871); assay: Peptide-receptor mediated cAMP accumulation (LANCE Ultra cAMP) in CHO-K1 cells transfected with human GCGR; format: cell-based
Chain of human GCGR (P47871 26-477): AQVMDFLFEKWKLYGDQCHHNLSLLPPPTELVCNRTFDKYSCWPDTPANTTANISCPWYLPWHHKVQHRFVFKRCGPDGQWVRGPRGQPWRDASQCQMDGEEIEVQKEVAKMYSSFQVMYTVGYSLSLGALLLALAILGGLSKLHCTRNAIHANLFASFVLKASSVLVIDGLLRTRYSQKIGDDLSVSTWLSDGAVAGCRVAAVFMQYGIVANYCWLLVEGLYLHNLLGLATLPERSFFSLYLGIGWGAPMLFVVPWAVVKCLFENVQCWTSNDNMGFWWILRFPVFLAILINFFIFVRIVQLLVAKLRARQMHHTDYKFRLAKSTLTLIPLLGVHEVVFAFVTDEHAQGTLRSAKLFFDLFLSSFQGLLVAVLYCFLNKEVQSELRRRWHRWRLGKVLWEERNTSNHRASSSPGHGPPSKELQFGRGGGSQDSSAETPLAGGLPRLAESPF

[1] = hGLP1 pEC50 (cAMP mean (n = 3): 11 point curve starting at 1 nM, Table 3)
[2] = Table 7, GLP-1R, read-out: GLP-1R pEC50 (converted)
[3] = read-out: GluR pEC50 (converted)

Row | Structure (SMILES) | EC50 (human GLP-1R; [1]) [nM] | EC50 (human GCGR; Table 3) [nM] | EC50 (human GLP-1R; [2]) [nM] | EC50 (human GCGR; [3]) [nM]
1 | CC(C)C[C@H](NC(=O)[C@H](Cc1ccc(O)cc1)NC(=O)[C@H](CCCCN)NC(=O)[C@H](CO)NC(=O)[C@H](Cc1ccc(O)cc1)NC(=O)[C@H](CC(=O)O)NC(=O)[C@H](CO)NC(=O)[C@@H](NC(=O)[C@H](Cc1ccccc1)NC(=O)[C@@H](NC(=O)CNC(=O)[C@H](CCC(N)=O)NC(=O)[C@H](CO)NC(=O)[C@@H](N)Cc1c[nH]c2ccccc12)[C@@H](C)O)[C@@H](C)O)C(=O)N[C@@H](CC(=O)O)C(=O)NC(C)(C)C(=O)N[C@@H](CCCCN)C(=O)N[C@@H](C)C(=O)N[C@@H](C)C(=O)N[C@@H](CCC(N)=O)C(=O)N[C@@H](CCC(=O)O)C(=O)N[C@@H](Cc1ccccc1)C(=O)N[C@H](C(=O)NC(C)(C)C(=O)N[C@@H](Cc1c[nH]c2ccccc12)C(=O)N[C@@H](CC(C)C)C(=O)N[C@@H](CCC(=O)O)C(=O)N[C@@H](CC(=O)O)C(=O)N[C@@H](CCC(=O)O)C(=O)N1CCC[C@H]1C(=O)N[C@@H](CO)C(=O)N[C@@H](CO)C(=O)NCC(=O)N[C@@H](C)C(=O)N1CCC[C@H]1C(=O)N1CCC[C@H]1C(=O)N1CCC[C@H]1C(=O)N[C@@H](CO)C(=O)O)C(C)C [Compound A92] (H-WSQGTFTSDYSKYLD[Aib]KAAQEFV[Aib]WLEDEPSSGAPPPS-OH; N-terminus assumed) | > 1 | 0.02 |  | 
2 | CC(C)C[C@H](NC(=O)[C@H](Cc1ccc(O)cc1)NC(=O)[C@H](CCCCN)NC(=O)[C@H](CO)NC(=O)[C@H](Cc1ccc(O)cc1)NC(=O)[C@H](CC(=O)O)NC(=O)[C@H](CO)NC(=O)[C@@H](NC(=O)[C@H](Cc1ccccc1)NC(=O)[C@@H](NC(=O)CNC(=O)[C@H](CCC(N)=O)NC(=O)[C@H](CO)NC(=O)[C@@H](N)Cc1c[nH]c2ccccc12)[C@@H](C)O)[C@@H](C)O)C(=O)N[C@@H](CC(=O)O)C(=O)NC(C)(C)C(=O)N[C@@H](CCCCN)C(=O)N[C@@H](C)C(=O)N[C@@H](C)C(=O)N[C@@H](CCC(N)=O)C(=O)N[C@@H](CCC(=O)O)C(=O)N[C@@H](Cc1ccccc1)C(=O)N[C@H](C(=O)NC(C)(C)C(=O)N[C@@H](Cc1c[nH]c2ccccc12)C(=O)N[C@@H](CC(C)C)C(=O)N[C@@H](CCC(=O)O)C(=O)N[C@@H](CC(=O)O)C(=O)N[C@@H](CCC(=O)O)C(=O)N1CCC[C@H]1C(=O)N[C@@H](CO)C(=O)N[C@@H](CO)C(=O)NCC(=O)N[C@@H](CCCCN)C(=O)N1CCC[C@H]1C(=O)N1CCC[C@H]1C(=O)N1CCC[C@H]1C(=O)N[C@@H](CO)C(=O)O)C(C)C [Compound A93] (H-WSQGTFTSDYSKYLD[Aib]KAAQEFV[Aib]WLEDEPSSGKPPPS-OH; N-terminus assumed) | > 1 | 0.0126 |  | 
3 | CCCCCCCCCCCCCCCC(=O)N[C@@H](CCC(=O)NCCCC[C@H](NC(=O)[C@@H](NC(=O)[C@H](Cc1ccccc1)NC(=O)[C@H](CCC(=O)O)NC(=O)[C@H](CCC(N)=O)NC(=O)[C@H](C)NC(=O)[C@H](Cc1ccc(O)cc1)NC(=O)[C@H](CCCCN)NC(=O)C(C)(C)NC(=O)[C@H](CC(=O)O)NC(=O)[C@H](CC(C)C)NC(=O)[C@H](Cc1ccc(O)cc1)NC(=O)[C@H](CCCCN)NC(=O)[C@H](CO)NC(=O)[C@H](Cc1ccc(O)cc1)NC(=O)[C@H](CC(=O)O)NC(=O)[C@H](CO)NC(=O)[C@@H](NC(=O)[C@H](Cc1ccccc1)NC(=O)[C@@H](NC(=O)CNC(=O)[C@H](Cc1c[nH]cn1)NC(=O)[C@H](CO)NC(=O)[C@@H](N)Cc1ccc(O)cc1)[C@@H](C)O)[C@@H](C)O)C(C)C)C(=O)N[C@@H](Cc1c[nH]c2ccccc12)C(=O)N[C@@H](CC(C)C)C(=O)N[C@@H](CCC(=O)O)C(=O)N[C@@H](CC(=O)O)C(=O)N[C@@H](CCC(=O)O)C(=O)N1CCC[C@H]1C(=O)N[C@@H](CO)C(=O)N[C@@H](CO)C(=O)NCC(=O)N[C@@H](C)C(=O)N1CCC[C@H]1C(=O)N1CCC[C@H]1C(=O)N1CCC[C@H]1C(=O)N[C@@H](CO)C(=O)O)C(=O)O [Compound B2] |  |  | > 1000 | 0.00794
4 | CCCCCCCCCCCCCCCC(=O)N[C@@H](CCC(=O)NCCCC[C@H](NC(=O)[C@H](CC(=O)O)NC(=O)[C@H](CO)NC(=O)[C@@H](NC(=O)[C@H](Cc1ccccc1)NC(=O)[C@@H](NC(=O)CNC(=O)[C@H](Cc1c[nH]cn1)NC(=O)[C@H](CO)NC(=O)[C@@H](N)Cc1ccc(O)cc1)[C@@H](C)O)[C@@H](C)O)C(=O)N[C@@H](CO)C(=O)N[C@@H](CCCCN)C(=O)N[C@@H](Cc1ccc(O)cc1)C(=O)N[C@@H](CC(C)C)C(=O)N[C@@H](CC(=O)O)C(=O)NC(C)(C)C(=O)N[C@@H](CCCCN)C(=O)N[C@@H](Cc1ccc(O)cc1)C(=O)N[C@@H](C)C(=O)N[C@@H](CCC(N)=O)C(=O)N[C@@H](CCC(=O)O)C(=O)N[C@@H](Cc1ccccc1)C(=O)N[C@H](C(=O)NC(C)(C)C(=O)N[C@@H](Cc1c[nH]c2ccccc12)C(=O)N[C@@H](CC(C)C)C(=O)N[C@@H](CCC(=O)O)C(=O)N[C@@H](CC(=O)O)C(=O)N[C@@H](CCC(=O)O)C(=O)N1CCC[C@H]1C(=O)N[C@@H](CO)C(=O)N[C@@H](CO)C(=O)NCC(=O)N[C@@H](C)C(=O)N1CCC[C@H]1C(=O)N1CCC[C@H]1C(=O)N1CCC[C@H]1C(=O)N[C@@H](CO)C(=O)O)C(C)C)C(=O)O [Compound B4] (H-YSHGTFTSDK([γGlu-Palmitoyl])SKYLD[Aib]KYAQEFV[Aib]WLEDEPSSGAPPPS-OH) |  |  | > 1000 | 0.794
5 | CC(C)C[C@H](NC(=O)[C@H](Cc1ccc(O)cc1)NC(=O)[C@H](CCCCN)NC(=O)[C@H](CO)NC(=O)[C@H](Cc1ccc(O)cc1)NC(=O)[C@H](CC(=O)O)NC(=O)[C@H](CO)NC(=O)[C@@H](NC(=O)[C@H](Cc1ccccc1)NC(=O)[C@@H](NC(=O)CNC(=O)[C@H](Cc1c[nH]cn1)NC(=O)[C@H](CO)NC(=O)[C@@H](N)Cc1ccc(O)cc1)[C@@H](C)O)[C@@H](C)O)C(=O)N[C@@H](CC(=O)O)C(=O)NC(C)(C)C(=O)N[C@@H](CCCCN)C(=O)N[C@@H](Cc1ccc(O)cc1)C(=O)N[C@@H](C)C(=O)N[C@@H](CCC(N)=O)C(=O)N[C@@H](CCC(=O)O)C(=O)N[C@@H](Cc1ccccc1)C(=O)N[C@H](C(=O)NC(C)(C)C(=O)N[C@@H](Cc1c[nH]c2ccccc12)C(=O)N[C@@H](CC(C)C)C(=O)N[C@@H](CCC(=O)O)C(=O)N[C@@H](CC(=O)O)C(=O)N[C@@H](CCC(=O)O)C(=O)N1CCC[C@H]1C(=O)N[C@@H](CO)C(=O)N[C@@H](CO)C(=O)N[C@@H](CCCCNC(=O)COCCOCCNC(=O)COCCOCCNC(=O)CC[C@H](NC(=O)CCCCCCCCCCCCCCCCC(=O)O)C(=O)O)C(=O)N[C@@H](C)C(=O)N1CCC[C@H]1C(=O)N1CCC[C@H]1C(=O)N1CCC[C@H]1C(=O)N[C@@H](CO)C(=O)O)C(C)C [Compound B5] |  |  | > 1000 | 0.251
6 | CC(C)C[C@H](NC(=O)[C@H](Cc1c[nH]c2ccccc12)NC(=O)[C@H](CCCCNC(=O)COCCOCCNC(=O)COCCOCCNC(=O)CC[C@H](NC(=O)CCCCCCCCCCCCCCCCC(=O)O)C(=O)O)NC(=O)[C@@H](NC(=O)[C@H](Cc1ccccc1)NC(=O)[C@H](CCC(=O)O)NC(=O)[C@H](CCC(N)=O)NC(=O)[C@H](C)NC(=O)[C@H](Cc1ccc(O)cc1)NC(=O)[C@H](CCCCN)NC(=O)C(C)(C)NC(=O)[C@H](CC(=O)O)NC(=O)[C@H](CC(C)C)NC(=O)[C@H](Cc1ccc(O)cc1)NC(=O)[C@H](CCCCN)NC(=O)[C@H](CO)NC(=O)[C@H](Cc1ccc(O)cc1)NC(=O)[C@H](CC(=O)O)NC(=O)[C@H](CO)NC(=O)[C@@H](NC(=O)[C@H](Cc1ccccc1)NC(=O)[C@@H](NC(=O)CNC(=O)[C@H](Cc1c[nH]cn1)NC(=O)[C@H](CO)NC(=O)[C@@H](N)Cc1ccc(O)cc1)[C@@H](C)O)[C@@H](C)O)C(C)C)C(=O)N[C@@H](CCC(=O)O)C(=O)N[C@@H](CC(=O)O)C(=O)N[C@@H](CCC(=O)O)C(=O)N1CCC[C@H]1C(=O)N[C@@H](CO)C(=O)N[C@@H](CO)C(=O)NCC(=O)N[C@@H](C)C(=O)N1CCC[C@H]1C(=O)N1CCC[C@H]1C(=O)N1CCC[C@H]1C(=O)N[C@@H](CO)C(=O)O [Compound B6] |  |  | > 1000 | 0.0794
7 | CC(C)C[C@H](NC(=O)[C@H](Cc1ccc(O)cc1)NC(=O)[C@H](CCCCN)NC(=O)[C@H](CO)NC(=O)[C@H](Cc1ccc(O)cc1)NC(=O)[C@H](CC(=O)O)NC(=O)[C@H](CO)NC(=O)[C@@H](NC(=O)[C@H](Cc1ccccc1)NC(=O)[C@@H](NC(=O)CNC(=O)[C@H](Cc1c[nH]cn1)NC(=O)[C@H](CO)NC(=O)[C@@H](N)Cc1ccc(O)cc1)[C@@H](C)O)[C@@H](C)O)C(=O)N[C@@H](CC(=O)O)C(=O)N[C@@H](CCCCNC(=O)COCCOCCNC(=O)COCCOCCNC(=O)CC[C@H](NC(=O)CCCCCCCCCCCCCCCCC(=O)O)C(=O)O)C(=O)N[C@@H](CCCCN)C(=O)N[C@@H](Cc1ccc(O)cc1)C(=O)N[C@@H](C)C(=O)N[C@@H](CCC(N)=O)C(=O)N[C@@H](CCC(=O)O)C(=O)N[C@@H](Cc1ccccc1)C(=O)N[C@H](C(=O)NC(C)(C)C(=O)N[C@@H](Cc1c[nH]c2ccccc12)C(=O)N[C@@H](CC(C)C)C(=O)N[C@@H](CCC(=O)O)C(=O)N[C@@H](CC(=O)O)C(=O)N[C@@H](CCC(=O)O)C(=O)N1CCC[C@H]1C(=O)N[C@@H](CO)C(=O)N[C@@H](CO)C(=O)NCC(=O)N[C@@H](C)C(=O)N1CCC[C@H]1C(=O)N1CCC[C@H]1C(=O)N1CCC[C@H]1C(=O)N[C@@H](CO)C(=O)O)C(C)C [Compound B7] |  |  | > 1000 | 2.51
